Consider one molecule from patent US10093684B2, “Substituted imidazo[1,2-a]pyrazines as Syk inhibitors” (Gilead Connecticut, Inc., priority 2008, dated 2018).

`CC(C)n1cc(Nc2nc(-c3ccc4cn[nH]c4c3)cn3ccnc23)cn1` [Compound 5, 6-(1H-indazol-6-yl)-N-(1-isopropyl-1H-pyrazol-4-yl)imidazo[1,2-a]pyrazin-8-amine]: the melting point is greater than 250 °C.

By melting point is commonly meant the temperature of the solid-liquid transition.
